From US6991812B2, “Agent for preventing, improving or treating hypertension” (Kao Corporation, priority 2000, dated 2006)

Test system: male spontaneous hypertensive rats (SHR)
Experiment: Immediate effect on blood pressure in SHR, 1 hour after oral administration, tail artery systolic blood pressure
Format: in vivo, rat
Details: Example 6, organic acid, SHR aged 15 weeks, mean ± standard error
Method: The blood pressure of each of male spontaneous hypertensive rats (SHR) was preliminarily continuously measured for 7 days by means of a commercially available non-invasive sphygmomanometer (manufactured by Softlon Co.), thereby fully accustoming the rats to the sphygmomanometry, and an evaluation test was then started. All the rats were bred (in a breeding chamber in a rat zone) under conditions of a temperature of 25±1° C., a relative humidity of 55±10% and a lighting time of 12 hours (from 7 a.m. to 7 p.m.).
The thus-obtained test results were expressed by a mean and standard error to conduct a Student's t-test. A level of significance was defined as at most 5%.
Six rats aged 15 weeks at the time the administration test was started were used in each group. The systolic blood pressure of a tail artery of each rat was measured after 1 hour from the beginning of the administration.
In Control Group, water was orally administered. In Comparative Group 1, a 0.2% aqueous solution of ferulic acid was orally administered. […]
Six rats aged 15 weeks at the time the administration test was started were used in each group. The systolic blood pressure of a tail artery of each rat was measured after 1 hour from the beginning of oral administration. […]
In Control Group, a 1% aqueous solution of sugar was orally administered. […] The dose was determined to be 15 mL/kg.

## COc1cc(/C=C/C(=O)O)ccc1O [Comp. Group 2, ferulic acid]
n=6, baseline
  Systolic blood pressures, Before administration: 208.0 ± 4.1 mmHg
n=6, oral aqueous solution
  Systolic blood pressures, After 1 hour from administration: 179.7 ± 4.4 mmHg
